Earlier results on three compounds are cited in patent US10993442B2, “Ultra-high loading glyphosate concentrate” (STEPAN COMPANY, priority 2008, dated 2021).

Structures can show the parent of a compound that is named as a salt.

For this data set the following is noted: for Solubility in water, glyphosate acid equivalent: as acid equivalent; for Solubility in water: as salt.

For `O=C(O)CNCP(=O)(O)O` [glyphosate potassium salt], the “Solubility in water, glyphosate acid equivalent” value is reported as “about 50 % by weight glyphosate acid equivalent (a.e.)” and the Solubility in water entry is “about 61 % by weight”.
With `O=C(O)CNCP(=O)(O)O` [glyphosate, N-phosphonomethylglycine], under “free acid form”, the Water solubility entry is “low”.
`CC(C)N.O=C(O)CNCP(=O)(O)O` [isopropylamine salt of glyphosate]: the “Solubility in water, glyphosate acid equivalent” value is recorded as “about 47 % by weight glyphosate acid equivalent (a.e.)” and the Solubility in water entry was “about 63 % by weight”.
